According to ChEMBL document CHEMBL1201862, “PubChem BioAssay data set” (2004):
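Exposure lasted 48 hours, with cells grown in 96-well plates and compounds tested at five concentrations. GI50 marks 50% less growth.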 The source made the active and inactive calls. No stated cut-off is given here; in the data, active = GI50 up to about 1.1 µM and inactive = higher.

Experiments:
Assay in all cases: growth of human tumour cells (NCI), 48 h
A498 = system: A498
COLO 205 = system: COLO 205
HCT-15 = system: HCT-15
HOP-62 = system: HOP-62
HT-29 = system: HT-29
IGROV-1 = system: IGROV-1
K562 = system: K562
KM12 = system: KM12
LOX IMVI = system: LOX IMVI
MCF7 = system: MCF7
NCI-H23 = system: NCI-H23
OVCAR-4 = system: OVCAR-4
OVCAR-8 = system: OVCAR-8
SK-MEL-28 = system: SK-MEL-28
SK-MEL-2 = system: SK-MEL-2
SN12C = system: SN12C
SNB-19 = system: SNB-19
SR = system: SR
SW-620 = system: SW-620
U-251 = system: U-251

SMILES	GI50 (A498)	GI50 (COLO 205)	GI50 (HCT-15) [µM]	GI50 (HOP-62)	GI50 (HT-29)	GI50 (IGROV-1)	GI50 (K562)	GI50 (KM12)	GI50 (LOX IMVI)	GI50 (MCF7)	GI50 (NCI-H23)	GI50 (OVCAR-4)	GI50 (OVCAR-8)	GI50 (SK-MEL-28)	GI50 (SK-MEL-2)	GI50 (SN12C)	GI50 (SNB-19)	GI50 (SR)	GI50 (SW-620)	GI50 (U-251)
CCCCCCCSCC(O)COC(c1ccccc1)(c1ccccc1)c1ccccc1 (stereo not drawn)	> 100 µM (inactive)	39.8 µM (inactive)	41.6	> 100 µM (inactive)	19.7 µM (inactive)	> 100 µM (inactive)	54.6 µM (inactive)	0.051 µM (active)	36.1 µM (inactive)	40.1 µM (inactive)	14.8 µM (inactive)	49.9 µM (inactive)	61.8 µM (inactive)	> 100 µM (inactive)	18.3 µM (inactive)	37.7 µM (inactive)	76.6 µM (inactive)	22.1 µM (inactive)	78 µM (inactive)	50.9 µM (inactive)
COc1ccc(CN2C(=O)C(=O)N(C)C2=O)c2ccccc12	> 10 µM (inactive)	> 10 µM (inactive)	> 10	> 10 µM (inactive)	> 10 µM (inactive)	> 10 µM (inactive)	> 10 µM (inactive)	> 10 µM (inactive)	> 10 µM (inactive)	> 10 µM (inactive)	> 10 µM (inactive)	> 10 µM (inactive)	> 10 µM (inactive)	> 10 µM (inactive)	> 10 µM (inactive)	> 10 µM (inactive)	> 10 µM (inactive)	> 10 µM (inactive)	> 10 µM (inactive)	> 10 µM (inactive)
CN(Cc1cnc2nc(N)nc(N)c2n1)c1ccc(C(=O)NC(CCC(=O)O)C(=O)O)cc1C(F)(F)F (stereo not drawn)	< 0.01 µM (active)	< 0.01 µM (active)	< 0.01	–	< 0.01 µM (active)	< 0.01 µM (active)	< 0.01 µM (active)	< 0.01 µM (active)	< 0.01 µM (active)	< 0.01 µM (active)	< 0.01 µM (active)	> 100 µM (inactive)	< 0.01 µM (active)	> 100 µM (inactive)	> 100 µM (inactive)	< 0.01 µM (active)	–	< 0.01 µM (active)	< 0.01 µM (active)	< 0.01 µM (active)
